Several values for one entry are separate records, joined by “and”; a condition that tells them apart may be missing. Identical values can stand only once.
Experiments:
Assay type in all cases: cell-based
MRGPRX4 (S83) = molecular target: T1, MRGPRX4 (S83) (Homo sapiens, UniProt Q96LA9, L83S); assay: EC50 determination, intracellular calcium mobilization in MRGPRX4 stably expressed HEK293 cells (FLIPR Calcium 5, Flexstation-3); design: Fig. 1D dose-response, calcium mobilization response (individual replicate) / calcium mobilization response (Fig. 1D dose-response raw data): unit not given here
T1 construct: expressed in transfected cells
T1 sequence (Q96LA9 whole entry L83S): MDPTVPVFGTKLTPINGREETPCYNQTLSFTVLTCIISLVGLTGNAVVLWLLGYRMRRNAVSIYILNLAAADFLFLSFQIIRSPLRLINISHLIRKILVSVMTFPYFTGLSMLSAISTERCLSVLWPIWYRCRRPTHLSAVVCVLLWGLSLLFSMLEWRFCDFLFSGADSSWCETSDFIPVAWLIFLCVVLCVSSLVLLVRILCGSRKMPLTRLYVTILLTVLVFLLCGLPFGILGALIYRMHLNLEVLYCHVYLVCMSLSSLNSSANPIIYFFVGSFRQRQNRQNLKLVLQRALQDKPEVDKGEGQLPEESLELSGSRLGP
Experimental: HEK293 cells and MRGPRX4 stably expressed HEK293 cells were seeded in 100 μl culture media on 96-well plates at a density of 40,000 cells per well and incubated overnight. The next day, the media were replaced with a dye-loading solution from the FLIPR Calcium 5 assay kit (Molecular Devices), diluted in Hank's Balanced Salt Solution (HBSS) with 20 mM HEPES, pH 7.4. After 1 h of incubation at 37°C, cells were allowed to recover for 10 min in the dark at room temperature prior to performing intracellular calcium mobilization assay in a Flexstation-3 instrument with SoftMax®Pro 7.1 software (Molecular Devices). Serial concentrations of tested drugs were prepared in HBSS/HEPES solution at 3X concentration. […] Compounds were tested in triplicates and the signals were averaged. Responses were determined by subtracting the minimum signal (at the baseline before adding the drug) from the maximum signal (obtained after drug stimulation). Four-parameter logistic (4PL) curve fit was used to plot the dose-response curves. […] Both dose-response curve fitting and EC50s calculation are computed with GraphPad Prism software (version: 6.o or above).

HTLA cells = assay: PRESTO-Tango β-arrestin recruitment assay, parental HTLA cells without MRGPRX4 (control, fig. S1)
Excerpt: Supplement NIHMS2038790-supplement-table.xlsx, sheet "fig. S1" | column: Concentration (M)

MRGPRX4 WT (S83) = MRGPRX4 WT (S83) (Homo sapiens, UniProt Q96LA9, L83S); assay: PRESTO-Tango β-arrestin recruitment assay, HTLA cells stably expressing WT (S83) MRGPRX4; design: expressed in transfected cells; settings: HTLA::MRGPRX4
Chain of MRGPRX4 WT (S83) (Q96LA9 whole entry L83S, the tested form may be a part): as the sequence (Q96LA9 whole entry L83S) above
Experimental: HTLA cells, a cell line derived from HEK293 and engineered to stably express a tTA-dependent luciferase reporter and a β-arrestin2-TEV fusion gene, were generously provided by Richard Axel's laboratory. HTLA cells were cultured in growth medium containing 2 μg/ml puromycin and 100 μg/ml hygromycin B in 5% CO2 at 37 °C. Stably MRGPRX4-expressing HTLA cells were generated by transfecting pcDNA3.1(+)-Zeo containing MRGPRX4-Tango construct (either with WT or S83L mutant sequence) into HTLA cells with Lipofectamine 3000 and selecting the successful transfected clones with Zeocin.
HTLA cells stably expressing either WT or S83L MRGPRX4 were seeded in PDL-coated 96-well white clear bottom cell culture plates with DMEM containing 10% FBS, at a density of 35,000 cells per well and were allowed to attach to the bottom of the wells overnight. The next day, growth medium was replaced with 100 μl of serum-free medium containing the tested drugs at various concentrations, and the cells were then incubated at 37°C for 24 h. On the following day, media with drug solutions was removed and 50 μl per well of Bright-Glo™ Reagent from Bright-Glo™ Luciferase Assay System (Promega) was loaded. The plate was incubated at room temperature in the dark for 5 min, and the relative luminescence units were measured using the Flexstation-3 instrument with SoftMax®Pro 7.1 software (Molecular Devices). Dose response curves and EC50s were analyzed as described above.
Data are from at least two independent experiments, each performed in
triplicate, and are depicted as mean ± SEM.
arrestin2-TEV fusion gene and a tTA -dependent luciferase reporter.

C[C@@H]1C[C@H]2[C@@H]3CCC4=CC(=O)C=C[C@]4(C)[C@@]3(F)[C@@H](O)C[C@]2(C)[C@@]1(O)C(=O)CO [Dexamethasone]
Fig. 1D dose-response, calcium mobilization response (individual replicate) (MRGPRX4 (S83); Concentration 9.76563e-7 M): -21.027 and -38.068 and -44.01 and -38.887 and -46.292 and -51.601 and -47.998 and -19.021 and -24.245
Fig. 1D dose-response, calcium mobilization response (individual replicate) (MRGPRX4 (S83); Concentration 1.95313e-6 M): -34.306 and -12.488 and -34.424 and -46.421 and -44.65 and -42.861 and -53.58 and -51.620 and -38.055
Fig. 1D dose-response, calcium mobilization response (individual replicate) (MRGPRX4 (S83); Concentration 3.90625e-6 M): -45.647 and -46.32 and -35.376 and -38.61 and -34.811 and -45.234 and -56.373 and -60.668 and -3.309
Fig. 1D dose-response, calcium mobilization response (individual replicate) (MRGPRX4 (S83); Concentration 7.8125e-6 M): -36.025 and -46.229 and -47.556 and -37.359 and -53.743 and -48.739 and -48.609 and -47.284 and -56.875
Fig. 1D dose-response, calcium mobilization response (individual replicate) (MRGPRX4 (S83); Concentration 1.5625e-5 M): -54.866 and -50.537 and -42.313 and -47.552 and -53.2 and -55.3 and -57.812 and -33.441 and -66.652
Fig. 1D dose-response, calcium mobilization response (individual replicate) (MRGPRX4 (S83); Concentration 3.125e-5 M): -56.076 and -45.2 and -44.531 and -46.041 and -46.006 and -58.081 and -60.475 and -59.746 and -11.251
Fig. 1D dose-response, calcium mobilization response (individual replicate) (MRGPRX4 (S83); Concentration 6.25e-5 M): -51.427 and -36.666 and -43.901 and -55.62 and -42.251 and -57.261 and -57.456 and -8.995 and -73.787
Fig. 1D dose-response, calcium mobilization response (individual replicate) (MRGPRX4 (S83); Concentration 0.00025 M): -40.896 and -34.789 and -49.545 and -32.204 and -28.295 and -45.507 and -42.773 and -53.155 and -37.185
Fig. 1D dose-response, calcium mobilization response (individual replicate) (MRGPRX4 (S83); Concentration 0.0005 M): -3.046 and -9.71 and -33.403 and -15.448 and -3.273 and -16.368 and -26.248 and -13.645 and -6.391
Fig. 1D dose-response, calcium mobilization response (individual replicate) (MRGPRX4 (S83); Concentration 0.001 M): -8.458 and -6.416 and -11.748 and -15.382 and -27.522 and -19.884 and -14.893 and -13.481 and -19.179
PRESTO-Tango response (fig. S1), single replicate (HTLA cells; concentration 9.77e-7 M): 0.004822 and 0.002858 and 0.001836 and 0.006042 and 0.003642 and 0.003121
PRESTO-Tango response (fig. S1), single replicate (HTLA cells; concentration 1.95e-6 M): 0.004669 and 0.01135 and 0.007279 and 0.01201 and 0.004751 and 0.007109
PRESTO-Tango response (fig. S1), single replicate (HTLA cells; concentration 0.000004 M): 0.004146 and 0.005626 and 0.002299 and 0.005155 and 0.007205 and 0.002627
PRESTO-Tango response (fig. S1), single replicate (HTLA cells; concentration 0.000008 M): 0.006851 and 0.005435 and 0.002472 and 0.006078 and 0.009879 and 0.006343
PRESTO-Tango response (fig. S1), single replicate (HTLA cells; concentration 3.13e-5 M): 0.004236 and 0.003572 and 0.004837 and 0.002213 and 0.004661 and 0.004714
PRESTO-Tango response (fig. S1), single replicate (HTLA cells; concentration 6.25e-5 M): 0.00398 and 0.007183 and 0.008495 and 0.006729 and 0.001521 and 0.004353
PRESTO-Tango response (fig. S1), single replicate (HTLA cells; concentration 0.00025 M): 0.001595 and 0.004197 and 0.004126 and 0.004268 and 0.000295 and 0.005991
PRESTO-Tango response (fig. S1), single replicate (HTLA cells; concentration 0.0005 M): 0.002985 and 0.003661 and 0.004712 and 0.003009 and 0.002249 and 0.001042
PRESTO-Tango response (fig. S1), single replicate (HTLA cells; concentration 0.001 M): 0.002207 and 0.002577 and 0.002201 and 0.000402 and 0.004573 and 0.000993
PRESTO-Tango response (fig. S1), single replicate (MRGPRX4 WT (S83); concentration 9.77e-7 M): 0.05502 and 0.04613 and 0.0583 and 0.05727 and 0.00632 and 0.09586
PRESTO-Tango response (fig. S1), single replicate (MRGPRX4 WT (S83); concentration 1.95e-6 M): 0.08603 and 0.06619 and 0.1004 and 0.1201 and 0.05846 and 0.07406
PRESTO-Tango response (fig. S1), single replicate (MRGPRX4 WT (S83); concentration 0.000004 M): 0.0533 and 0.07958 and 0.05713 and 0.07013 and 0.1112 and 0.008646
PRESTO-Tango response (fig. S1), single replicate (MRGPRX4 WT (S83); concentration 0.000008 M): 0.06153 and 0.0682 and 0.07104 and 0.08136 and 0.03922 and 0.08019
PRESTO-Tango response (fig. S1), single replicate (MRGPRX4 WT (S83); concentration 3.13e-5 M): 0.0689 and 0.04671 and 0.04196 and 0.06207 and 0.03885 and 0.05666
PRESTO-Tango response (fig. S1), single replicate (MRGPRX4 WT (S83); concentration 6.25e-5 M): 0.03211 and 0.04959 and 0.04067 and 0.02014 and 0.05174 and 0.05049
PRESTO-Tango response (fig. S1), single replicate (MRGPRX4 WT (S83); concentration 0.00025 M): 0.07947 and 0.03843 and 0.03927 and 0.03864 and 0.06682 and 0.0517
PRESTO-Tango response (fig. S1), single replicate (MRGPRX4 WT (S83); concentration 0.0005 M): 0.06213 and 0.03131 and 0.04202 and 0.04862 and 0.02625 and 0.06059
PRESTO-Tango response (fig. S1), single replicate (MRGPRX4 WT (S83); concentration 0.001 M): 0.05095 and 0.05745 and 0.03908 and 0.09388 and 0.02339 and 0.03021

Source: article PMC11645656, “MRGPRX4 mediates phospho-drug associated pruritus in a humanized mouse model” (Science translational medicine, 2024)
